Data from publication PMC11013477, “Lycocasine A, a Lycopodium Alkaloid from Lycopodiastrum casuarinoides and Its Acid-Sensing Ion Channel 1a Inhibitory Activity” (Molecules, 2024).
Where two headings read alike, the source gives them in different places.

Tests used:
ASIC1a [1] = target: T1, ASIC1a (Homo sapiens, UniProt P78348); experiment: Whole-cell voltage-clamp recording of ASIC1a currents in transfected HEK293T cells; format: cell-based; conditions: for inhibition at 50 µM: HEK-293T
T1 construct: expressed in transfected cells; host or cells: HEK293T
T1 sequence (P78348 1-528): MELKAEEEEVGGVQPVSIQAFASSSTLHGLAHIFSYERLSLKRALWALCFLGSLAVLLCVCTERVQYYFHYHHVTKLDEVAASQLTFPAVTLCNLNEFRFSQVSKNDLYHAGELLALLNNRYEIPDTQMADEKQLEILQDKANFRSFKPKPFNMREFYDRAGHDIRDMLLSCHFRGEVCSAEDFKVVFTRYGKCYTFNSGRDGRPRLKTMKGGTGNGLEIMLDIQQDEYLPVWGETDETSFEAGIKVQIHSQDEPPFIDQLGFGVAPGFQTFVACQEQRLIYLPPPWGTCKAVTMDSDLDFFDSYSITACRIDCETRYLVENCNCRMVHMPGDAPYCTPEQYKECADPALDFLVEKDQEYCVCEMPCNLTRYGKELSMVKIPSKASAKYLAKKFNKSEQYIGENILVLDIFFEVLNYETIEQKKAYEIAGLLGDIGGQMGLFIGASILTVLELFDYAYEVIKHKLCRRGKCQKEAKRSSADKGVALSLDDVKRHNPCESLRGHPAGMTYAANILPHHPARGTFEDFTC
Protocol: Cells were plated at a low density in 12-well plates 24 h prior to transfection. For transfection, Lipofectamine 3000 (Invitrogen, Thermo Fisher Scientific, Inc., Waltham, MA, USA) was utilized to introduce 300 ng of ASIC1a cDNA into adherent cells, which were then analyzed for 24–48 h post-transfection. […] Borosilicate glass micropipettes, fashioned to achieve a resistance of 2–6 MΩ, were filled with an intracellular recording solution comprising 140 mM KCl, 2 mM MgCl2, 5 mM EGTA, 5 mM NaCl, and 10 mM HEPES (adjusted to pH 7.4 with KOH). […] Current signals were amplified using a SUTTER IPA-2 amplifier, with data acquisition and analysis performed using SutterPatch 9.0 software. Data processing was carried out using GraphPad Prism version 8.0.

ASIC1a [2] = target: T1, ASIC1a; conditions: read-out: IC50 ASIC1a inhibition; cited from earlier work
[3] = 50 μM, HEK293T cells transfected with ASIC1a, currents triggered by pH 6.0, holding potential −60 mV, read-out: inhibition rate of ASIC1a currents

Structure (SMILES) | inhibition at 50 µM (ASIC1a [1]; [3]) | IC50 (ASIC1a [2]) | other results
N=C(N)NC(=O)c1nc(Cl)c(N)nc1N [Amiloride] | > 50% | – | –
C=CC1C2C=C(C)CC1(N(C)C)C1=C(C(=O)OC)C(=O)NC1(O)C2 (centres unmarked) [Compound 1, lycocasine A] | – | – | IC50 (ASIC1a [1]): 48.7 ± 0.92 µM; inhibition at 50 µM (ASIC1a [1]; pH 6, read-out: inhibition rate of ASIC1a currents): > 50%; melting point: 187 to 189 °C
CC1=C[C@H]2Cc3[nH]c(=O)ccc3[C@]3(C1)NCCC[C@H]23 [Compound 7, huperzine B] | < 30% | – | –
COc1cc2c(cc1O)[C@H](Cc1ccc(Oc3cc(C[C@@H]4NCCc5cc(OC)c(O)cc54)ccc3O)cc1)NCC2 [Lindoldhamine] | – | 9 µM | –
O=c1c(-c2ccc(O)cc2)coc2c([C@@H]3O[C@H](CO)[C@@H](O)[C@H](O)[C@H]3O)c(O)ccc12 [Puerarin] | – | 9.31 µM | –
COC1=C[C@@H]2[C@@H]3Cc4ccc(OC)c(O)c4[C@]2(CCN3C)CC1=O [Sinomenine] | – | ~1 µM | –
